Common to all, as to assay: Effect on cell growth in the presence of androgen (cell count)
Holding throughout (format): cell-based

For one assay, the system named is MDA PCa 2b cells. Particulars: 0.1 to 100 ng/mL testosterone, cells counted 4 days after addition, FIG. 2. The protocol: (§1) (Method) LNCaP-hr (cultured for 60 weeks in culture broth free of androgen) and LNCaP-FGC cells were plated on a 24 well plate at 40000 cells/mL/well, 0.01 to 10 ng/mL of testosterone was added the next day, and the cells were counted 3 days after the addition. In addition, MDA PCa 2b-hr (cultured for 61 weeks in culture broth free of androgen) and MDA PCa 2b cells were plated on a 24 well plate at 40000 cells/mL/well, 0.1 to 100 ng/mL of testosterone was added the next day, and the cells were counted 4 days after the addition. (Results) The growth of LNCaP-FGC and MDA PCa 2b was promoted by testosterone [FIGS. 1 and 2]. In contrast, the growth of LNCaP-hr and MDA PCa 2b-hr cells were suppressed by testosterone [FIGS. 1 and 2].

The next assay concerns LNCaP-FGC cells. Particulars: 0.01 to 10 ng/mL testosterone, cells counted 3 days after addition, FIG. 1. The protocol: as §1
Assay [1] relates to LNCaP-hr cells (highly androgen sensitive cell line). The note with it: LNCaP-hr (cultured 60 weeks in androgen-free broth), 0.01 to 10 ng/mL testosterone, cells counted 3 days after addition, FIG. 1.
In assay [2] the test system is MDA PCa 2b-hr cells (highly androgen sensitive cell line). The note with it: MDA PCa 2b-hr (cultured 61 weeks in androgen-free broth), 0.1 to 100 ng/mL testosterone, cells counted 4 days after addition, FIG. 2.

For `C[C@]12CC[C@H]3[C@@H](CCC4=CC(=O)CC[C@@]43C)[C@@H]1CC[C@@H]2O` [testosterone], the cell growth result with MDA PCa 2b cells is given as “promoted”; with LNCaP-FGC cells it was “promoted”; in assay [1] it was “suppressed”; in assay [2] it was “suppressed”.

The values above are taken from patent US8518890B2, “Remedies for sex hormone dependent disease” (Takeda Pharmaceutical Company Limited, priority 2002, dated 2013).
